Values joined by “and” are separate entries in the source; they are usually repeats but may differ in a detail not shown here. Equal values may be shown once. Read-outs that look alike come from different tables or passages of the source.
What was measured:
[1] = Release from 3D printed cellulose-sodium alginate bioinks; type: physicochemical; conditions: PBS
Description: Peptide nanofibers were embedded in cellulose nanocrystals and sodium alginate hydrogels. Cellulose nanocrystals were synthesised by sulphuric acid degradation (45% w/v, 150 mls) of cellulose (15 g, Western Hemlock) at 50° C. over 90 minutes under stirring. Cold-deionised water was used to quench reaction and acid was removed by centrifugation (4,000 rpm, 10 minutes). Cellulose nanocrystals were dialysed (12-14 kDa for cytochrome C, Medicell Ltd) over 5 L with 6 changes over 24 hours. Resulting suspension was probe sonicated (400 watt, 23% amplitude, 10 minutes) in 50 mLs aliquots. The resulting suspension was centrifuged (4,000 rpm, 10 minutes) and supernatant was stored in the refrigerator. Cellulose nanocrystals (CNCs, 4.5% w/w, 2 g) were loaded onto a syringe attached to a three-way valve, where a syringe loaded sodium alginate (6% w/w in 4.6% glucose, 1.7 g). The CNCs were injected in the sodium alginate syringe and mixed 10 times (in each direction). Sample was collected in one syringe and a new syringe containing calcium chloride (0.1M, 0.9 mL). Sample was pushed into calcium chloride and mixed 5 times (in each direction) prior collecting the gel in one syringe and loading in cartridges. Peptide nanofibers (5 mg) were dispersed in 0.9 mL of 0.1M calcium chloride and mixed as above when needed. Release of paclitaxel loaded and TPGnRH gels in PBS (1×, 7.4, 6 mLs) was quantified as per HPLC method described previously (Example 7, Table 2). After an initial burst release, a controlled release profile is observed with gradual slow release over days. Resulting inks can be utilised for the production of nanofiber loaded implants for tumour patients.

[2] = molecular target: T1, GnRH-R expressed on glioblastoma cells (Homo sapiens, UniProt P30968); assay: Receptor binding by single molecule force spectroscopy; conditions: for koff: read-out: Dissociation Rate (Koff)
T1 construct: GnRH peptides to the GnRH-R expressed on glioblastoma cells; endogenous in cells; host or cells: U-87 MG, UP-007, UP-029, SEBTA-023 glioblastoma cells (living)
T1 sequence (P30968 1-328): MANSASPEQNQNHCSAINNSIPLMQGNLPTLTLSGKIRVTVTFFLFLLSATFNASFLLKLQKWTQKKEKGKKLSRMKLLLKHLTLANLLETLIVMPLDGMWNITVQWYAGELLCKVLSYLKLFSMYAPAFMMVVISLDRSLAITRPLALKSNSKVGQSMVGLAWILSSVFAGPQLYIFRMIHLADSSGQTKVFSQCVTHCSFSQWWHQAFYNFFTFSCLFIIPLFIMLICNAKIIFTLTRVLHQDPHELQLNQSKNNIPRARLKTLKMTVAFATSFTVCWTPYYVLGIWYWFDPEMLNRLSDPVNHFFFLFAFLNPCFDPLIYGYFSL
Description: The binding of the GnRH analogues to GnRH-R was assessed using single molecule force spectroscopy (SMFS) and Topography and Recognition (TREC) imaging based on AFM. AFM tips were functionalised with Glu-GnRH, goserelin acetate and […] as a monomer and nanofibers using a previously described method ^9, 10. Silicon nitride (6-20 pN/nm spring constant, Bruker, Mass., USA) and magnetically coated […] tips (Keysight, Calif., USA) were used for SMFS and TREC studies, respectively. […] Subsequently, acetal groups were converted into aldehyde groups by immersing the tips in a 1% (w/v) citric acid solution for 10 minutes. […] Following an incubation of 2 hours, the free aldehyde groups were inactivated by ethanolamine for 10 minutes. AFM tips were washed with PBS three times and stored at 4° C. […] Loading rates were calculated by multiplying the pulling velocity (v) with the effective spring constant (keff). Spring constants were determined by the thermal-noise method. The force-distance curves were acquired using PicoView 1.12 (Agilent Technologies, Inc., California, USA) and analysed in Matlab 8.1 software (MathWorks, Massachusetts, USA). […] Amplitude-distance curves were collected on a glass coverslip to adjust the free oscillation amplitude, and to determine the optimal amplitude reduction value for driving the feedback loop during the imaging. Free amplitude of cantilever oscillation was 30 nm and the excitation frequency was set to 9 kHz.

in vivo = conditions: male, BALB/c, mouse, iv, 35 mg/kg
Description: At 5 and 60 minutes, mice were killed and the blood and brain were harvested. Blood samples (0.5-0.7 mL per mouse) were collected into evacuated, sterile, spray coated with tripotassium ethylenediamine tetraacetic acid (3.6 mg), medical grade PET tubes. […] Brain was weighted and homogenised with ice-cold PBS (1×, 7.4) using a 3 mL glass homogeniser. Plasma (100 μL) and brain homogenate (˜800 μL) were extracted with equal volumes of ice-cold acetonitrile three times and samples were dried using a centrifugal concentrator (SPD1010 SpeedVac System, ThermoSavant, Renfrewshire, United Kingdom) under vacuum over 2 hours and 4 hours respectively. Samples were orbitally agitated using a SciQuip Microplate Shaker attached to a tube adapter for 1.5-2 mL tubes (10 mm) for 10 minutes prior being centrifuged at 8,000 rpm for 5 minutes. Supernatants were pipetted in 0.2 mL amber vials and was quantified by reverse phase-HPLC. Analysis was conducted on Onyx Monolithic C18 column (4.6 mm×10+100 mm, 5 μm pore size) with a gradient method (Table 13) using an Agilent 1200 Series HPLC system (Agilent Technologies, Cheadle, UK). […] Injection volume was 40 μL, and the detection was performed at 220 nm and 280 nm.

[3] = Enzymatic stability in rat plasma; conditions: 50% (v/v) rat plasma
Description: Fresh blood, obtained from adult male Wistar rats, was collected in sterile the 170 I.U. lithium heparin-coated tubes (Vacutainer, BD Bioscience, UK). Blood was centrifuged immediately at 2,000 g for 15 minutes (4° C.) and supernatant was collected and diluted to 50% (v/v) with PBS. Livers and brains were obtained from adult male Wistar rats, and the tissues were blotted to dryness, weighed, sliced into pieces, and homogenised with ice-cold PBS (in 2 mL of buffer g^−1 of tissue) using the glass homogeniser. Then, tissue homogenates were centrifuged at 4,300 g for 1 hour (4° C.) and the supernatants collected. Glioblastoma cell homogenates were prepared using U-87 MG cells. Cells were cultured in Eagle's Minimum Essential Medium (EMEM) supplemented with 10% (v/v) heat-inactivated fetal bovine serum (FBS), 1% (v/v) of non-essential amino acids (NEAA) and 1 mM of sodium pyruvate in T75 flasks with a surface area of 75 cm^2 and maintained in a humidified atmosphere of 5% CO2 at 37° C. Breast cancer cell homogenates were prepared using MDA-MB-231 cells. Cells were cultured in Dulbecco's Modified Eagle Medium (DMEM) supplemented with high levels of glucose (4.5 g/L), 10% (v/v) heat-inactivated fetal bovine serum (FBS), 1% (v/v) of non-essential amino acids (NEAA) and penicillin and streptomycin (500 units/mL) in T75 flasks with a surface area of 75 cm^2 and maintained in a humidified atmosphere of 5% CO2 at 37° C. Media was changed for both cell lines every 3 to 4 days. After reaching confluence, cells were washed twice with Hank's Balanced Salt Solution (HBSS) and incubated with ˜2 mL of TrypLE Enzyme at 37° C. for ˜3 minutes. Then, complete media were added, and cells were centrifuged at 1,000 rpm for 5 minutes in C-28A centrifuge (Boeco, Germany). U-87 MG or MDA-MB-231 cells (˜10×10^6 cells mL^−1) were re-suspended in ice-cold PBS, and homogenised with a 2×5 second pulses with the probe sonicator (UP200S Ultrasonic processor, SciMed, 200 watts, amplitude of 60%). Cell debris were removed by centrifugation at 2,000 rpm for 5 minutes (Jouan B4i, Thermo Scientific, Paisley, UK). Supernatant was collected and stored at −80° C. Total protein concentration in the homogenates was determined using the Bradford assay with bovine serum albumin as a standard. Diluted plasma, tissue or cell homogenates were pre-warmed during ˜30 minutes at 37° C. Peptide stock solutions (Glu-GnRH, goserelin acetate and TPGnRH, 5 mM in PBS, 500 μL) were prepared and added to the homogenate solutions (120 μL). […] Samples were vortexed for 15 minutes, centrifuged for 15 minutes at 12,000 rpm, and the supernatants were collected and analysed by RP-HPLC.

[4] = Circular dichroism, temperature and dilution stability of nanofibers; type: physicochemical; conditions: CD, 15 to 50° C., dilutions 1:10-1:100
Description: Secondary structure was assessed using circular dichroism (CD). TPGnRH solutions (70 or 700 μM) were prepared in aqueous 0.9% sodium chloride and analysed at 20±0.1° C. using Applied Photophysics Pi180 spectropolarimeter (Surrey, UK). For the temperature-dependent studies, the peptide was incubated at a range of temperature (15 to 50° C.) and the spectra were collected at 5° C. intervals. To investigate the effect of dilution, peptide solutions were diluted in 0.9% (w/v) sodium chloride solution at 20° C. Data were collected every 1 nm over the wavelength range of 200-360 nm. X-ray diffraction (XRD) studies were carried out on stalks prepared by suspending drops of TPGnRH solutions (70 or 700 μM) between the ends of the wax-coated capillaries and allowing them to dry at room temperature. Stalks were vertically mounted onto a four-axis goniometer of a FR-E+X-Ray diffractomer (Rigaku, Sevenoaks, UK).

With `CCCCCCCCCCCCCCCC(=O)Oc1ccc(C[C@H](NC(=O)[C@H](CO)NC(=O)[C@H](Cc2c[nH]c3ccccc23)NC(=O)[C@H](Cc2c[nH]cn2)NC(=O)[C@@H](N)CCC(=O)O)C(=O)NCC(=O)N[C@@H](CC(C)C)C(=O)N[C@@H](CCCNC(=N)N)C(=O)N2CCC[C@H]2C(=O)NCC(N)=O)cc1` [TPGnRH, Tyrosine (O-Palmitoyl)-Glu-GnRH] the “% release from 3D printed bioink” value ([1]; 0 minutes) was 0%, the “% release from 3D printed bioink” value ([1]; 1 minutes) was 15.4 ± 9.6% and the “% release from 3D printed bioink” value ([1]; 5 minutes) was 15.4 ± 7.8%. The “% release from 3D printed bioink” value ([1]; 10 minutes) was 16.3 ± 11.5%, the “% release from 3D printed bioink” value ([1]; 15 minutes) was 15.4 ± 4.6% and the “% release from 3D printed bioink” value ([1]; 30 minutes) was 16.4 ± 4.9%. For the same compound, the “% release from 3D printed bioink” value ([1]; 45 minutes) was 14.7 ± 6.9%, the “% release from 3D printed bioink” value ([1]; 60 minutes) was 19.7 ± 8.5% and the “% release from 3D printed bioink” value ([1]; 90 minutes) was 20.6 ± 4.6%. For the same compound, the “% release from 3D printed bioink” value ([1]; 120 minutes) was 21.8 ± 9.4%, the “% release from 3D printed bioink” value ([1]; 240 minutes) was 20.6 ± 10.7% and the “% release from 3D printed bioink” value ([1]; 360 minutes) was 22.6 ± 7.4%. For the same compound, the “% release from 3D printed bioink” value ([1]; 1110 minutes) was 24.5 ± 7.9%, the “% release from 3D printed bioink” value ([1]; 1440 minutes) was 28.5 ± 9.8% and the “% release from 3D printed bioink” value ([1]; 2760 minutes) was 32.1 ± 9.7%. The “Binding Force” value ([2]; SEBTA-023) was 41.4 ± 3.85 pN, the “Binding Probability” value ([2]; SEBTA-023) was 17.04±3.1% and the koff ([2]; SEBTA-023) was 2.49 ± 0.12 s⁻¹. The “Binding Force” value ([2]; U-87 MG) was 30.00 ± 5.57 pN, the “Binding Probability” value ([2]; U-87 MG) was 13.2±0.9% and 13.2 ± 1.64% and the koff ([2]; U-87 MG) was 0.89 ± 0.1 s⁻¹. The “Binding Force” value ([2]; UP-007) was 50.80 ± 2.88 pN, the “Binding Probability” value ([2]; UP-007) was 20.5±5.8% and the koff ([2]; UP-007) was 1.23 ± 0.13 s⁻¹. For the same compound, the “Binding Force” value ([2]; UP-029) was 46.4 ± 9.45 pN, the “Binding Probability” value ([2]; UP-029) was 9.5±2.5% and 9.51 ± 2.53% and the koff ([2]; UP-029) was 2.03 ± 4.14 s⁻¹. The tissue level at time at 5 min (in vivo; brain) was 3080 ± 1010 ng/g, the tissue level at time at 1 h (in vivo; brain) was 3470 ± 80 ng/g and the level at 5 min (in vivo; plasma) was 545 ± 342 µg/mL. The level at 1 h (in vivo; plasma) was 45.6 ± 10.1 µg/mL, the k ([3]; analyte in brackets of label) was 0.0937 min⁻¹ and the remaining at 8 h, 4.03 mM ([3]; male, Wistar, rat) was greater than 80%. For the same compound, the “temperatures at which nanofibers are physically stable” value [4] was less than 40 °C.

— US20210038730A1, “PEPTIDE NANOFIBERS” (UNIVERSITY OF PORTSMOUTH HIGHER EDUCATION CORPORATION, priority 2018, published 2021)
